Assay results as given in ChEMBL document CHEMBL5463729, “Data for DCP probe BAY 1753011” (2023).
Blank lines part the entries; values can stand above or below the molecule they belong to.

Legend:
[1] = biological target: Serine/threonine-protein kinase Nek1 (Homo sapiens) (UniProt Q96PY6); assay: Inhibition of NEK1(h) at 10.0 µM in the Eurofins Kinase panel; settings: Compound concentration 10.0 uM
[2] = biological target: Cannabinoid receptor 2 (Homo sapiens) (UniProt P34972); settings: Compound concentration 10.0 uM
[3] = biological target: 5-hydroxytryptamine receptor 2A (Homo sapiens) (UniProt P28223); settings: Compound concentration 10.0 uM
Sequence of 5-hydroxytryptamine receptor 2A (Homo sapiens) (P28223 whole entry): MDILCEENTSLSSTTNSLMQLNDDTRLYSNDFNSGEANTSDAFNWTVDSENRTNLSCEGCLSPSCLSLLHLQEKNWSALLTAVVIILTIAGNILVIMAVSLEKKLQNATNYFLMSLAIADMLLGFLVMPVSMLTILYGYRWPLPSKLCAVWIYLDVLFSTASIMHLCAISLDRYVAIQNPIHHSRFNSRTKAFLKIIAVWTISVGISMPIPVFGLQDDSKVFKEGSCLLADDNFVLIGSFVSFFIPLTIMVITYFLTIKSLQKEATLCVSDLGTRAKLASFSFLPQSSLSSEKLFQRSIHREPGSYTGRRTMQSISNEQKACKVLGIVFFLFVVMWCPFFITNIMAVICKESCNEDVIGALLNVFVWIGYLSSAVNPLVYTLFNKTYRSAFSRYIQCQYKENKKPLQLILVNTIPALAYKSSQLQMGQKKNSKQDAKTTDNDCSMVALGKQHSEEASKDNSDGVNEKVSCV

[4] = biological target: GABA-A receptor; anion channel (Rattus norvegicus) (UniProt O09028+P15431+P18506+P18508+P19969+P20236+P23574+P23576+P28471+P28473+P30191+P62813+P63079+P63138+Q91ZM7+Q9ES14); settings: Compound concentration 10.0 uM
[5] = biological target: Growth hormone secretagogue receptor type 1 (Homo sapiens) (UniProt Q92847); settings: Compound concentration 10.0 uM
[6] = biological target: Fibroblast growth factor receptor 4 (Homo sapiens) (UniProt P22455); assay: Inhibition of FGFR4(h) at 10.0 µM in the Eurofins Kinase panel; settings: Compound concentration 10.0 uM
Sequence of Fibroblast growth factor receptor 4 (Homo sapiens) (P22455 22-802 limits assumed): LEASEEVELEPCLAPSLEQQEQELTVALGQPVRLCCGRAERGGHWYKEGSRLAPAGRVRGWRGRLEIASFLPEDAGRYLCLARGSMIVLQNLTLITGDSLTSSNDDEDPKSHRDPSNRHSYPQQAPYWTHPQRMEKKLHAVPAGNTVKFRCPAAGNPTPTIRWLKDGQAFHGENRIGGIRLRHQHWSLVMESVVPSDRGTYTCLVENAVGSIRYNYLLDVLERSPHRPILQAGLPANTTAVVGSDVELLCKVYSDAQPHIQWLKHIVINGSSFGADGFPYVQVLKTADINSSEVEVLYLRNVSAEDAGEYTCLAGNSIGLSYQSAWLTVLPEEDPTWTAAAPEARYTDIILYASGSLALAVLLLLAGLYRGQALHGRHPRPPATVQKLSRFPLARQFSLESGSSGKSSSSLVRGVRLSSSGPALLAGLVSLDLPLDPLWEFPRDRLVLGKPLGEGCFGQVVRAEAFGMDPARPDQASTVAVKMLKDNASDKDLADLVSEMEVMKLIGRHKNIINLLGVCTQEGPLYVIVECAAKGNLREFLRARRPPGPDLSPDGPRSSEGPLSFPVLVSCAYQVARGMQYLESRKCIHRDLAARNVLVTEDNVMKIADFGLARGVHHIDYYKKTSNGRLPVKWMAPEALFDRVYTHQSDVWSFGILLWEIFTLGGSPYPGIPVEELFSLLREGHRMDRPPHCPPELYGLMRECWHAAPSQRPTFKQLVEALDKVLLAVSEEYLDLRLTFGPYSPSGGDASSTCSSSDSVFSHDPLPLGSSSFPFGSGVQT

[7] = biological target: RAC-beta serine/threonine-protein kinase (Homo sapiens) (UniProt P31751); assay: Inhibition of PKBbeta(h) at 10.0 µM in the Eurofins Kinase panel; settings: Compound concentration 10.0 uM
[8] = biological target: Calcium/calmodulin-dependent protein kinase type 1B (Homo sapiens) (UniProt Q6P2M8); assay: Inhibition of CaMKIbeta(h) at 10.0 µM in the Eurofins Kinase panel; settings: Compound concentration 10.0 uM
Sequence of Calcium/calmodulin-dependent protein kinase type 1B (Homo sapiens) (Q6P2M8 whole entry): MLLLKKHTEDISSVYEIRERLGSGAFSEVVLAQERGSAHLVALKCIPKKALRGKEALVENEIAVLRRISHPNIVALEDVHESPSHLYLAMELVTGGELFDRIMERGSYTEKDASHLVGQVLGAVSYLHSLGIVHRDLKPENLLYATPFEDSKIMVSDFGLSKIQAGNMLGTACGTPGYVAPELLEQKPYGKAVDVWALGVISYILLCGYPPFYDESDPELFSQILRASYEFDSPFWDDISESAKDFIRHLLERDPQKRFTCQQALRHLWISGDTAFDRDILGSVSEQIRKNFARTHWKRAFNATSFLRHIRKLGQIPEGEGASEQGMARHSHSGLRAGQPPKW

[9] = biological target: STE20-like serine/threonine-protein kinase (Homo sapiens) (UniProt Q9H2G2); assay: Inhibition of SLK(h) at 10.0 µM in the Eurofins Kinase panel; settings: Compound concentration 10.0 uM
[10] = biological target: SRSF protein kinase 2 (Homo sapiens) (UniProt P78362); assay: Inhibition of SRPK2(h) at 10.0 µM in the Eurofins Kinase panel; settings: Compound concentration 10.0 uM
[11] = biological target: T1, 5-hydroxytryptamine receptor 3A (Homo sapiens) (UniProt P46098); assay: Inhibition of Serotonin (5-Hydroxytryptamine) 5-HT3 at 10 µM in the Eurofins-Panlabs radioligand binding assay (Eurofins_assay_271910); design: ligand concentration 0.69 nM; settings: Compound concentration 10.0 uM
T1 sequence (whole entry): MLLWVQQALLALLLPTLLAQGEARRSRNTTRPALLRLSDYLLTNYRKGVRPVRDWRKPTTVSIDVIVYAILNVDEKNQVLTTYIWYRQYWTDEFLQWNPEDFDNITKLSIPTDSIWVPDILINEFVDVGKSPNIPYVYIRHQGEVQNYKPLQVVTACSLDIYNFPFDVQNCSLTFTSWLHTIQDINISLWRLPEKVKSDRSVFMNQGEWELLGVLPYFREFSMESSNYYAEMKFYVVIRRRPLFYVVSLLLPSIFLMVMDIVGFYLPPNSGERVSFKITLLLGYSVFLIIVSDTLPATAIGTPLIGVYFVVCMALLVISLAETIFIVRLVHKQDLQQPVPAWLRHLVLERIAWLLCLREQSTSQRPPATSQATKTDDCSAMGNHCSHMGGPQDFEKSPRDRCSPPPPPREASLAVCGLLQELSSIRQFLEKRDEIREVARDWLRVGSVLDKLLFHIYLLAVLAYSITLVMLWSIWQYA

Caspase-1 (Homo sapiens) = Caspase-1 (Homo sapiens) (UniProt P29466); assay: Inhibition of Peptidase, CASP1 (Caspase 1) at 10 µM in the Eurofins-Panlabs enzyme assay (Eurofins_assay_163000); settings: Compound concentration 10.0 uM
[12] = biological target: Histamine H3 receptor (Homo sapiens) (UniProt Q9Y5N1); settings: Compound concentration 10.0 uM
[13] = biological target: Vasoactive intestinal polypeptide receptor 1 (Homo sapiens) (UniProt P32241); assay: Inhibition of Vasoactive Intestinal Peptide VIP1 at 10 µM in the Eurofins-Panlabs radioligand binding assay (Eurofins_assay_287010); settings: Compound concentration 10.0 uM
Sequence of Vasoactive intestinal polypeptide receptor 1 (Homo sapiens) (P32241 whole entry): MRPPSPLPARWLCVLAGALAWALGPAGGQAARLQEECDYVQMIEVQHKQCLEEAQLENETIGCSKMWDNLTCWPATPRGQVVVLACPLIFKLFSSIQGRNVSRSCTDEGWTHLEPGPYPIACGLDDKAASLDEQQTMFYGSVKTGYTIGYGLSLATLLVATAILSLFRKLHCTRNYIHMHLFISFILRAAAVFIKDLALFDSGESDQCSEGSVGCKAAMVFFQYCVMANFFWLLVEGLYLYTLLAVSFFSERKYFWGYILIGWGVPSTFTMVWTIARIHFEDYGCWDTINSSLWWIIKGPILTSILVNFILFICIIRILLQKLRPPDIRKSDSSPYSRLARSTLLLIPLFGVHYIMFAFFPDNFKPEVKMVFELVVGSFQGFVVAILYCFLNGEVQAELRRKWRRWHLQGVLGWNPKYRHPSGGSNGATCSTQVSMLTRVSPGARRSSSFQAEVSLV

[14] = biological target: B1 bradykinin receptor (Homo sapiens) (UniProt P46663); assay: Inhibition of Bradykinin B1 at 10 µM in the Eurofins-Panlabs radioligand binding assay (Eurofins_assay_212510); settings: Compound concentration 10.0 uM
Sequence of B1 bradykinin receptor (Homo sapiens) (P46663 whole entry): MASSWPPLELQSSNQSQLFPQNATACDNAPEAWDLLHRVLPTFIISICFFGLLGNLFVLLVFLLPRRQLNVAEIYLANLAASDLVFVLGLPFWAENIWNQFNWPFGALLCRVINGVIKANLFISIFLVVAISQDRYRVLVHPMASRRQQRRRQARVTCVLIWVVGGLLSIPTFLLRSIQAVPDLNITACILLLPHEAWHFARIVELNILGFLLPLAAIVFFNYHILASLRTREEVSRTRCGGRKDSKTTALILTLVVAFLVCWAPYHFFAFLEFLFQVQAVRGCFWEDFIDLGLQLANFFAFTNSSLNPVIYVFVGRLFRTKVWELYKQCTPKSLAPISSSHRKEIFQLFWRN

[15] = biological target: Carbonic anhydrase 2 (Homo sapiens) (UniProt P00918); assay: Inhibition of Carbonic Anhydrase II at compound concentration of 10.0 uM in the Eurofins-Panlabs enzyme assay (Eurofins_assay_112020); design: substrate with concentration; settings: Compound concentration 10.0 uM
[16] = biological target: T2, Alpha-1A adrenergic receptor (Homo sapiens) (UniProt P35348); settings: Rattus norvegicus; Compound concentration 10.0 uM
T2 sequence (whole entry): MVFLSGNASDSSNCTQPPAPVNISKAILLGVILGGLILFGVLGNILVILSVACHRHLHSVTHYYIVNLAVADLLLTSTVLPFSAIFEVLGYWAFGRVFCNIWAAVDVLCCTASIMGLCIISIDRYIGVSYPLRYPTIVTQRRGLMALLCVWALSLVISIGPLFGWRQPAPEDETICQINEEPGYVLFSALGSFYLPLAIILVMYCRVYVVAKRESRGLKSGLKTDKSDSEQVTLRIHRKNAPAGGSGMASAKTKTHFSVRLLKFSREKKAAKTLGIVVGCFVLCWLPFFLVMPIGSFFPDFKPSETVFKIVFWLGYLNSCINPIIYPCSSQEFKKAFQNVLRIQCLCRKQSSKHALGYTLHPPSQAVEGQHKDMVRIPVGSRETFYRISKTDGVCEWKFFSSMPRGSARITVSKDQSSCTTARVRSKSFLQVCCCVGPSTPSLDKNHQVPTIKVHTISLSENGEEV

[17] = biological target: Mitogen-activated protein kinase kinase kinase 20 (Homo sapiens) (UniProt Q9NYL2); assay: Inhibition of ZAK(h) at 10.0 µM in the Eurofins Kinase panel; settings: Compound concentration 10.0 uM
Sequence of Mitogen-activated protein kinase kinase kinase 20 (Homo sapiens) (Q9NYL2 2-800 limits assumed): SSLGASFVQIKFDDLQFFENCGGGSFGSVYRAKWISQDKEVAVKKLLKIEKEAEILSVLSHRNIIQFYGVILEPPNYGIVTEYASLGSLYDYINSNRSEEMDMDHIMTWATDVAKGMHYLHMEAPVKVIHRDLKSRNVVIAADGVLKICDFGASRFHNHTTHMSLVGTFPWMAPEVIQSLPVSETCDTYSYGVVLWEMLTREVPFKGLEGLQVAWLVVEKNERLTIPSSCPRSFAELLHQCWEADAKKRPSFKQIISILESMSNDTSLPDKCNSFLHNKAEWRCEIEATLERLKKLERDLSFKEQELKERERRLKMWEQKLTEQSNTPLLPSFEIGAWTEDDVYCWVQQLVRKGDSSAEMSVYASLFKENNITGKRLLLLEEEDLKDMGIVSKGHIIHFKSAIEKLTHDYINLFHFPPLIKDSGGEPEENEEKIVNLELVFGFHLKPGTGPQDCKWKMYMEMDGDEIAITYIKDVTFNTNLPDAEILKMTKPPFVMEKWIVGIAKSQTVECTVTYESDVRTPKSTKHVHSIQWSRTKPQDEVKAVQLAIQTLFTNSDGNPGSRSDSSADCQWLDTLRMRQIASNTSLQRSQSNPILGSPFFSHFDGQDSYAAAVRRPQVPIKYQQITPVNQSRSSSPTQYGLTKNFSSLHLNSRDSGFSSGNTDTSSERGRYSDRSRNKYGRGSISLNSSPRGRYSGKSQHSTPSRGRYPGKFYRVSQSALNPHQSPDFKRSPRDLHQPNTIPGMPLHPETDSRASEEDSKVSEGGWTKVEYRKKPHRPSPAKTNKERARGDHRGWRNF

Sus scrofa = species: Sus scrofa; assay: Inhibition of ATPase, Na+/K+, Heart at compound concentration of 10.0 uM in the Eurofins-Panlabs enzyme assay (Eurofins_assay_107710); design: substrate with concentration; settings: Compound concentration 10.0 uM
Mus musculus [18] = species: Mus musculus; assay: Inhibition of Interleukin IL-1 at 10 µM in the Eurofins-Panlabs radioligand binding assay (Eurofins_assay_243520); design: ligand concentration 0.1 nM; settings: Compound concentration 10.0 uM
[19] = biological target: cAMP-dependent protein kinase catalytic subunit beta (Homo sapiens) (UniProt P22694); assay: Inhibition of PKACbeta(h) at 10.0 µM in the Eurofins Kinase panel; settings: Compound concentration 10.0 uM
[20] = biological target: Aldo-keto reductase family 1 member B1 (Rattus norvegicus) (UniProt P07943); assay: Inhibition of Aldose Reductase at compound concentration of 10.0 uM in the Eurofins-Panlabs enzyme assay (Eurofins_assay_107000); design: substrate with concentration; settings: Compound concentration 10.0 uM
[21] = biological target: cGMP-specific 3',5'-cyclic phosphodiesterase (Homo sapiens) (UniProt O76074); settings: Compound concentration 10.0 uM
[22] = biological target: Dual specificity protein kinase CLK4 (Homo sapiens) (UniProt Q9HAZ1); assay: Inhibition of CLK4(h) at 10.0 µM in the Eurofins Kinase panel; settings: Compound concentration 10.0 uM
Sequence of Dual specificity protein kinase CLK4 (Homo sapiens) (Q9HAZ1 whole entry, looked up): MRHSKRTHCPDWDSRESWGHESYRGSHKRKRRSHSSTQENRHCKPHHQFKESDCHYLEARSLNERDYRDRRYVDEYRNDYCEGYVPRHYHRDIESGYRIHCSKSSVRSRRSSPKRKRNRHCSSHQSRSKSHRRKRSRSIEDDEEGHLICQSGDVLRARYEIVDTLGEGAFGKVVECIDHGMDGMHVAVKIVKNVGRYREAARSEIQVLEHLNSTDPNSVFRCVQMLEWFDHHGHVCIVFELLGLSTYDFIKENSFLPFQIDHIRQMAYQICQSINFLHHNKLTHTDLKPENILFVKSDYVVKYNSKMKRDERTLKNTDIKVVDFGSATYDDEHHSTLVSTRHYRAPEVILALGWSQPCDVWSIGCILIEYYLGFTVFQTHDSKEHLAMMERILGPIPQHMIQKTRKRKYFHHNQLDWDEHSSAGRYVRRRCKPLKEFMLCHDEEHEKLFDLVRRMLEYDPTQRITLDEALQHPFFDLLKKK

[23] = biological target: Serine/threonine-protein kinase tousled-like 1 (Homo sapiens) (UniProt Q9UKI8); assay: Inhibition of TLK1(h) at 10.0 µM in the Eurofins Kinase panel; settings: Compound concentration 10.0 uM
Mus musculus [24] = species: Mus musculus; assay: Inhibition of Phorbol Ester at 10 µM in the Eurofins-Panlabs radioligand binding assay (Eurofins_assay_264500); design: ligand concentration 3 nM; settings: Compound concentration 10.0 uM

Sequence of Serine/threonine-protein kinase Nek1 (Homo sapiens) (Q96PY6 whole entry): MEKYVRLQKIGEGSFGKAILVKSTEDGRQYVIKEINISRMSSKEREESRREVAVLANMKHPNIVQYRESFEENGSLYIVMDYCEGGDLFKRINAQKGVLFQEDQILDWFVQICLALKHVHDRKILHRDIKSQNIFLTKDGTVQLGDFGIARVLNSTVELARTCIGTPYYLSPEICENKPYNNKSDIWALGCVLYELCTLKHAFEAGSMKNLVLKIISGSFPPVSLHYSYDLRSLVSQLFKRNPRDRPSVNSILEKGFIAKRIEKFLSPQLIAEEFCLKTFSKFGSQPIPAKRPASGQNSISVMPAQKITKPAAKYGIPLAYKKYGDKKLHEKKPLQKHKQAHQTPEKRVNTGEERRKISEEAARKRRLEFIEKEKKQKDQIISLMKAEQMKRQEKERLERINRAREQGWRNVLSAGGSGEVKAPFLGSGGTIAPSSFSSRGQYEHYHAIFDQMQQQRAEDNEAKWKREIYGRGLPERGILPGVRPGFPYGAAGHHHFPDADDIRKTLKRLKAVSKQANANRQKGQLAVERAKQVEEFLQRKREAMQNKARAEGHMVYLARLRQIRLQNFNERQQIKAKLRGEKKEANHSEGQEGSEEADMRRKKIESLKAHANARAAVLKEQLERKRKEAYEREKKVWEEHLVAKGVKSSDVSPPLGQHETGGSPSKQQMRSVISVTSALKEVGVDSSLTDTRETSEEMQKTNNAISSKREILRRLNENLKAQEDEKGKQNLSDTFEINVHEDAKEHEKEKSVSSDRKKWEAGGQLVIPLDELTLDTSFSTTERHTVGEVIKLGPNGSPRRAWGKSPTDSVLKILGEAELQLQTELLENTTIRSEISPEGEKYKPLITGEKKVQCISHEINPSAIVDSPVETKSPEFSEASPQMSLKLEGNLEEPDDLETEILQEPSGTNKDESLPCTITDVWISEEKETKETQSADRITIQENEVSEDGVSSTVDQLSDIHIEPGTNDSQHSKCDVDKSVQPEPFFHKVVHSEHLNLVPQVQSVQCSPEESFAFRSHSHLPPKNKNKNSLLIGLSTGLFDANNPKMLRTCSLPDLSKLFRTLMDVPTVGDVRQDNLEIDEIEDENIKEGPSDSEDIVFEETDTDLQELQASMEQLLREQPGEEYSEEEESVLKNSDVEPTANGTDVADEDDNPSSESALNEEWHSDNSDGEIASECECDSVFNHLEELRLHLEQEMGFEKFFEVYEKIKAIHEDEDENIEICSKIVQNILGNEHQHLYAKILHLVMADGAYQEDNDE

inhibition [1]: 5.54%
inhibition [2]: 14%
inhibition [3]: -2%
inhibition [4]: -3.13%
inhibition [5]: 25%
inhibition [6]: -8.35%
inhibition [7]: -3.28%
inhibition [8]: -8.98%
inhibition [9]: 0.22%
SMILES: O=c1n(Cc2cncn2-c2cccc(Cl)c2)nc(-c2ccc(Cl)cc2)n1C[C@H](O)C(F)(F)F

SMILES: C[C@H](O)c1nc(Cn2nc(-c3ccc(Cl)cc3)n(C[C@H](O)C(F)(F)F)c2=O)nn1-c1cccc(Cl)c1 [PECAVAPTAN]
inhibition [10]: -4.81%
inhibition [11]: -2%
inhibition (Caspase-1 (Homo sapiens)): 0%
inhibition [12]: -1%
inhibition [13]: 10%
inhibition [14]: 0%
inhibition [15]: -4%
inhibition [16]: 23%
inhibition [17]: -4.87%
inhibition (Sus scrofa): 0%
inhibition (Mus musculus [18]): 15%
inhibition [19]: -5.07%
inhibition [20]: 6%
inhibition [21]: -10%
inhibition [22]: 1.42%
inhibition [23]: -3.06%
inhibition (Mus musculus [24]): 3%
